Experimental data: patent US11453667B2, “Pyridone-pyrimidine derivative acting as KRASG12C mutein inhibitor” (MEDSHINE DISCOVERY INC., priority 2018, dated 2022)

Assays:
[1] = system: NCI-H358 human non-small cell lung cancer cells with KRAS G12C mutation; test: Cell experiment: anti-proliferative activity, CellTiter-Glo, NCI-H358; assay type: cell-based; settings: 5 days culture
Protocol: (§1) This experiment is intended to verify that the compounds of the present invention have an inhibitory effect on the proliferation of NCI-H358 human non-small cell lung cancer cells with KRAS G12C mutation, MIA PaCa2 human pancreatic cancer cells with KRAS G12C mutation and wild-type A375 human malignant melanoma cells.
(§2) 40 μl of phosphate buffer was added to the peripheral wells of three 384-well microplates respectively, and 40 μl of cell suspension to be tested was added to the other wells of each plate respectively (plate 1: NCI-H358 cell suspension containing 500 NCI-H358 cells; plate 2: MIAPaCa2 cell suspension containing 300 MIAPaCa2 cells; plate 3: A375 cell suspension containing 300 A375 cells). The three cell plates were then placed in a carbon dioxide incubator and incubated overnight. Echo was used to perform a 3-fold gradient dilution of the compounds to be tested, and each compound was diluted with 10 concentration gradients (diluted from 50 μM to 0.003 μM), 100 nl of which was respectively added to the corresponding wells of the cell plates; after dosing, 40 μL of phosphate buffer was added to each well of rows A and P and columns 1 and 24, and then the cell plates were put back to the carbon dioxide incubator for culturing for 5 days. 20 μl of Promega CellTiter-Glo reagent per well was added to the cell plates, which was shaken at room temperature for 10 minutes in the dark to stabilize the luminescence signal. A PerkinElmer Envision multi-label analyzer was used for reading.
(§3) Data analysis: IC50 results were analyzed by GraphPad Prism 5.0 software […].

[2] = system: wild-type A375 human malignant melanoma cells; test: Cell experiment: anti-proliferative activity, CellTiter-Glo, A375; assay type: cell-based; settings: 5 days culture
Protocol: as §1, §2, §3

[3] = system: MIA PaCa2 human pancreatic cancer cells with KRAS G12C mutation; test: Cell experiment: anti-proliferative activity, CellTiter-Glo, MIA PaCa2; assay type: cell-based; settings: 5 days culture
Protocol: as §1, §2, §3

[4] = Liver microsome stability test, human; assay type: in vitro ADME; settings: human liver microsomes, 0.5 mg protein/mL; read-out: Human T1/2
Protocol: (§4) To test the metabolic stability of the test article in mice, rats and human liver microsomes.
(§5) 1. 10 μL of the test or control article working solution was added to all plates (T0, T5, T10, T20, T30, T60, NCF60).
(§6) 2. Liver microsome solution was dispensed into a 96-well plate at 680 μL/well, and addition was performed on each plate at 80 μL/well, and the above-mentioned incubation plate was placed at 37° C. for pre-incubation for about 10 minutes.
(§7) 4. After the pre-incubation, the NADPH regeneration system working solution was dispensed into the 96-well plate at 90 μL/well, and addition was performed on each plate at 10 μL/well to start the reaction.
(§8) 5. Incubation was performed for an appropriate time (e.g., 5, 10, 20, 30 and 60 minutes).
(§9) 6. 300 μL of the stopping solution (refrigerated at 4° C., containing 100 ng/mL of tolbutamide and 100 ng/mL of labetalol) was respectively added to each sample well.
(§10) T1/2 and Clint(mic) were calculated by the following formula.
(§11) Ct is the concentration at time t, with t being the incubation time; C0 is the concentration at 0; Ke is the elimination rate constant; Clint(mic) is the intrinsic clearance rate of liver microsomes; and Clint(liver) is the hepatic intrinsic clearance rate. CLint(mic)=0.693/half-life/mg microsomal protein per mL (microsome concentration during incubation) CLint(liver)=CLint(mic)×mg microsomal protein/g liver weight×ratio of liver weight to body weight

[5] = Liver microsome stability test, rat; assay type: in vitro ADME; settings: rat liver microsomes, 0.5 mg protein/mL; read-out: rat T1/2
Protocol: as §4, §5, §6, §7, §8, §9, §10, §11

[6] = Liver microsome stability test, mouse; assay type: in vitro ADME; settings: mouse liver microsomes, 0.5 mg protein/mL; read-out: mouse T1/2
Protocol: as §4, §5, §6, §7, §8, §9, §10, §11

[7] = system: human non-small cell lung cancer NCI-H358; test: In vivo drug efficacy test (2): subcutaneous xenograft tumor model; set-up: species or system BALB/c nude mice; settings: 100 mg/kg (0-6 days) + 50 mg/kg (7-20 days)
Protocol: To evaluate the in vivo efficacy of the test compounds in a subcutaneous xenograft tumor model of human non-small cell lung cancer NCI-H358.
BALB/c nude mice, female, 6-8 weeks old, weighing 18-21 grams. A total of 100 were required. They were provided by Shanghai Lingchang Experimental Animal Co., Ltd ( ? ? ). NCI-H358 tumor cells were resuspended in PBS to prepare 0.1 mL (5×10^6) of cell suspension, which was inoculated subcutaneously on the right back of each mouse (5×10^6/mouse) to wait for tumor growth. When the average tumor volume reached about 150-200 mm^3, randomized grouping and administration were performed, and the administration dose was shown in Table 6. The diameter of the tumor was measured with vernier calipers twice a week. The formula for calculating the tumor volume is: V=0.5a×b^2, wherein a and b represent the long and short diameters of the tumor, respectively. The tumor suppressive effect of the compounds was evaluated by TGI (%). TGI (%) reflects the tumor growth inhibition rate. Calculation of TGI (%): TGI (%)=[(1−(average tumor volume at the end of administration in a treatment group−average tumor volume at the beginning of administration in the treatment group))/(average tumor volume at the end of treatment in the solvent control group−average tumor volume at the beginning of treatment in the solvent control group)]×100%.

[8] = Homo sapiens, MIA PaCa-2, 120 h

Row | Compound | IC50 ([2]; Homo sapiens, A-375, 120 h) [µM] | IC50 ([1]; Homo sapiens, NCI-H358, 120 h) [µM] | IC50 [3, 8] [µM] | further results
1 | C=CC(=O)N1CCN(c2nc(N3CC(N(CC)CC)C3)nc3c(=O)n(-c4c(N)c(Cl)cc(Cl)c4F)c(C(F)(F)F)cc23)CC1 (atropisomer, axis not shown) [Example 45] |  |  |  | IC50 [1]: 0.01 µM; IC50 [2]: 6.24 µM; IC50 [3]: 0.01 µM
2 | C=CC(=O)N1CCN(c2nc(N3CC(N(CC)CC)C3)nc3c(=O)n(-c4c(O)cccc4F)c(C(F)(F)F)cc23)CC1 [Example 9] |  |  |  | half-life [4]: > 2.42 h; half-life [5]: 0.772 h; half-life [6]: > 2.42 h
3 | C=CC(=O)N1CCN(c2nc(Oc3cnn(C)c3)nc3c(=O)n(-c4c(O)cccc4F)c(C(F)(F)F)cc23)CC1 [Example 15] | > 50 | 13.9 |  | 
4 | C=CC(=O)N1CCN(c2ncnc3c(=O)n(-c4c(F)cccc4OC(=O)N(C)C)c(C(F)(F)F)cc23)CC1 [Example 22] | 24.4 |  |  | IC50 ([1]; Homo sapiens, 120 h): 5.12 µM
5 | C=CC(=O)N1CCN(c2ncnc3c(=O)n(-c4c(C)cccc4O)c(C(F)(F)F)cc23)CC1 [Example 25] |  |  | 15.3 | 
6 | C=CC(=O)N1CCN(c2ncnc3c(=O)n(-c4c(C)ccc5c4cnn5C(C)=O)c(C(F)(F)F)cc23)CC1 [Example 27] | ≥ 50 | 20.8 |  | 
7 | C=CC(=O)N1CCN(c2nc(N3CC(N(CC)CC)C3)nc3c(=O)n(-c4c(C)ccc(N)c4C)c(C(F)(F)F)cc23)CC1 [Example 35] |  |  |  | IC50 [3]: 12 µM
8 | C=CC(=O)N1CCN(c2nc(N3CC(N(CC)CC)C3)nc3c(=O)n(-c4c(C)ccc(N)c4C)c(C(F)(F)F)cc23)CC1 [Example 36] |  |  |  | IC50 [3]: 1.11 µM; half-life [4]: > 2.42 h; half-life [5]: > 2.42 h; half-life [6]: > 2.42 h
9 | C=CC(=O)N1CCN(c2nc(N3CC(N(CC)CC)C3)nc3c(=O)n(-c4c(O)c(Cl)cc(Cl)c4F)c(C(F)(F)F)cc23)CC1 [Example 46] | > 50 | 1.95 | 1.79 | 
10 | C=CC(=O)N1CCN(c2ncnc3c(=O)n(-c4c(O)c(Cl)cc(Cl)c4F)c(C(F)(F)F)cc23)CC1 [Example 50] | > 50 | 5.49 | 3.9 | 
11 | C=CC(=O)N1CCN(c2ncnc3c(=O)n(-c4c(N)c(Cl)cc(Cl)c4F)c(C(F)(F)F)cc23)[C@H](C)C1 [Example 52] |  |  |  | IC50 [1]: 0.06 µM; IC50 [2]: 7.39 µM
12 | C=CC(=O)N1CCN(c2ncnc3c(=O)n(-c4c(N)c(Cl)cc(Cl)c4F)c(C(F)(F)F)cc23)[C@@H](C)C1 [Example 54] |  |  |  | IC50 [1]: 0.29 µM; IC50 [2]: 6.66 µM
13 | C=CC(=O)N1CCN(c2ncnc3c(=O)n(-c4c(O)ccc5ccccc45)c(C(F)(F)F)cc23)CC1 [Trifluoroacetate of example 55] | ≥ 50 | 4.26 |  | 

Continued by falling IC50 ([2]; Homo sapiens, A-375, 120 h), values first:

Row | IC50 ([2]; Homo sapiens, A-375, 120 h) [µM] | IC50 ([1]; Homo sapiens, NCI-H358, 120 h) [µM] | IC50 [3, 8] [µM] | Compound | further results
14 | 42.2 | 24 |  | C=CC(=O)N1CCN(c2nc(OC)nc3c(=O)n(-c4c(O)cccc4F)c(C(F)(F)F)cc23)CC1 [Example 11] | 
15 | 39.9 | 14.6 | 12.7 | C=CC(=O)N1CCN(c2nc(N3CCOCC3)nc3c(=O)n(-c4c(O)cccc4F)c(C(F)(F)F)cc23)CC1 [Example 6] | 
16 | 39.6 | 15.8 |  | C=CC(=O)N1CCN(c2nc(N3CC(N(CC)CC)C3)nc3c(=O)n(-c4c(N)cccc4F)c(C(F)(F)F)cc23)CC1 [Example 33] | 
17 | 39.1 | 1.41 | 2.31 | C=CC(=O)N1CCN(c2nc(N3CC(N(CC)CC)C3)nc3c(=O)n(-c4c(O)cccc4F)c(C(F)(F)F)cc23)CC1 [Formate of example 8] | 
18 | 36.2 | 9.93 |  | C=CC(=O)N1CCN(c2ncnc3c(=O)n(-c4c(C)ccc5[nH]ncc45)c(C(F)(F)F)cc23)CC1 [Example 28] | 
19 | 33.3 | 1.64 | 1.25 | C=CC(=O)N1CCN(c2ncnc3c(=O)n(-c4c(N)cccc4F)c(C(F)(F)F)cc23)CC1 [Example 31] | 
20 | 32.6 | 13.3 |  | C=CC(=O)N1CCN(c2ncnc3c(=O)n(-c4c(C)ccc(N)c4C)c(C(F)(F)F)cc23)CC1 [Example 26] | 
21 | 29.3 | 0.45 | 0.37 | C=CC(=O)N1CCN(c2nc(N3CC(N(CC)CC)C3)nc3c(=O)n(-c4c(N)cccc4F)c(C(F)(F)F)cc23)CC1 (single isomer, unassigned) [Example 32] | half-life [4]: > 2.42 h; half-life [5]: > 2.42 h; half-life [6]: > 2.42 h
22 | 27.9 | 1 | 0.82 | C=CC(=O)N1CCN(c2ncnc3c(=O)n(-c4c(F)ccc(Cl)c4N)c(C(F)(F)F)cc23)CC1 [Example 47] | 
23 | 20.8 | 0.18 | 0.13 | C=CC(=O)N1CCN(c2ncnc3c(=O)n(-c4c(N)ccc(Cl)c4F)c(C(F)(F)F)cc23)CC1 [Example 48] | 
24 | 19.7 | 1.05 | 1.44 | C=CC(=O)N1CCN(c2nc(N3CC(N(CC)CC)C3)nc3c(=O)n(-c4c(C)ccc5[nH]ncc45)c(C(F)(F)F)cc23)CC1 [Example 37] | 
25 | 17.8 | 5.3 |  | C=CC(=O)N1CCN(c2ncnc3c(=O)n(-c4c(F)cccc4OC)c(C(F)(F)F)cc23)CC1 [Example 1] | 
26 | 12.2 | 0.15 | 0.16 | C=CC(=O)N1CCN(c2nc(N3CC(N(CC)CC)C3)nc3c(=O)n(-c4c(F)ccc(Cl)c4N)c(C(F)(F)F)cc23)CC1 [Example 41] | 
27 | 9.89 | 14.2 |  | C=CC(=O)N1CCN(c2nc(OC3CCN(C)CC3)nc3c(=O)n(-c4c(O)cccc4F)c(C(F)(F)F)cc23)CC1 [Example 12] | 
28 | 9.02 |  |  | C=CC(=O)N1CCN(c2nc(N3CC(N(CC)CC)C3)nc3c(=O)n(-c4c(N)c(Cl)cc(Cl)c4F)c(C(F)(F)F)cc23)CC1 (atropisomer, axis not shown) [Example 44] | IC50 [1]: 3.67 µM; IC50 [3]: 2.97 µM
29 | 8.91 |  |  | C=CC(=O)N1CCN(c2ncnc3c(=O)n(-c4c(N)c(Cl)cc(Cl)c4F)c(C(F)(F)F)cc23)[C@@H](C)C1 (atropisomer, axis not shown) [Example 53] | IC50 [1]: 2.27 µM
30 | 8.82 |  |  | C=CC(=O)N1CCN(c2ncnc3c(=O)n(-c4c(N)c(Cl)cc(Cl)c4F)c(C(F)(F)F)cc23)[C@H](C)C1 (atropisomer, axis not shown) [Example 51] | IC50 [1]: 2.04 µM
31 | 4.57 | 0.01 | 0.02 | C=CC(=O)N1CCN(c2nc(N3CC(N(CC)CC)C3)nc3c(=O)n(-c4c(N)ccc(Cl)c4F)c(C(F)(F)F)cc23)CC1 [Example 42] | Tumor volume (day 20) [7]: 191 mm^3; TGI ([7]; day 20): 95.51%
32 | 2.86 | 7.18 |  | C=CC(=O)N1CC2CN(c3ncnc4c(=O)n(-c5c(O)cccc5F)c(C(F)(F)F)cc34)CC21 (centres unmarked) [Example 18] | 
